Experimental data taken from patent US20250160324A1, “ACIDIFIED OLEOGEL AND METHODS OF USE” (University of Massachusetts, priority 2023, published 2025).

Columns and labels:
[1] = system: desiccated Salmonella enterica subsp. enterica serovar Enteritidis phage type 30 (ATCC BAA-1045); test: Antimicrobial assay against cells desiccated on stainless-steel coupons; assay type: cell-based; settings: 200 mM organic acid, 30-min contact; for MLR ± SD, W/O emulsion, 22° C. / MLR ± SD, W/O emulsion, 45° C.: 1% v/v water; for MLR ± SD, W/O emulsion, 22° C. / MLR ± SD, W/O emulsion, 45° C. / MLR ± SD, W/O emulsion with glycerol, 22° C. / MLR ± SD, W/O emulsion with glycerol, 45° C.: 75% ERH; for MLR ± SD, Oil with PGPR, 22° C. / MLR ± SD, Oil with PGPR, 45° C.: cells desiccated to 75% ERH
[2] = Water activity (aw) by Dewpoint aw meter; assay type: physicochemical; settings: 200 mM organic acid

| SMILES | MLR ± SD, W/O emulsion, 22° C. [1] | MLR ± SD, W/O emulsion, 45° C. [1] | MLR ± SD, W/O emulsion with glycerol, 22° C. [1] | MLR ± SD, W/O emulsion with glycerol, 45° C. [1] | MLR ± SD, Oil with PGPR, 22° C. [1] | MLR ± SD, Oil with PGPR, 45° C. [1] | MLR ± SD, Oil with PGPR, 22° C. ([1]; listed as C2) | MLR ± SD, Oil with PGPR, 45° C. ([1]; listed as C2) | measured solution aw of acidified oil [2] | MLR ± SD, Oil with PGPR, 22° C. ([1]; listed as C3) | MLR ± SD, Oil with PGPR, 45° C. ([1]; listed as C3) |
| --- | --- | --- | --- | --- | --- | --- | --- | --- | --- | --- | --- |
| CC(=O)O [Acetic, acetic/ethanoic acid] | >6.52 | >6.52 | 0.81 ± 0.24 | 2.53 ± 0.75 | 0.69 ± 0.19 | 1.42 ± 0.14 | 0.69 | 1.42 | – | – | – |
| CCCCCCCCCCC(=O)O [Undecylic, undecylic/undecanoic acid] | 0.38 ± 0.09 | >6.52 | – | 0.22 ± 0.18 | – | 0.31 ± 0.03 | – | – | – | – | – |
| CCCCCC(=O)O [Caproic, caproic/hexanoic acid] | 0.72 ± 0.18 | >6.52 | 0.10 ± 0.03 | 0.74 ± 0.48 | 0.21 ± 0.09 | 0.68 ± 0.08 | – | – | – | – | – |
| CCCCCCCCCCCC(=O)O [Lauric, lauric/dodecanoic acid] | 1.05 ± 0.28 | >6.52 | 0.49 ± 0.12 | 1.02 ± 0.04 | 0.16 ± 0.06 | 0.40 ± 0.17 | – | – | – | – | – |
| CCCCCCC(=O)O [Enanthic, enanthic/heptanoic acid] | 0.34 ± 0.26 | >6.52 | – | 0.79 ± 0.22 | – | 0.34 ± 0.03 | – | – | – | – | – |
| CCCC(=O)O [Butyric, butyric/butanoic acid] | 0.55 ± 0.06 | >6.52 | 0.31 ± 0.16 | 1.40 ± 0.31 | – | 0.52 ± 0.13 | – | – | – | – | – |
| O=CO [Formic, formic/methanoic acid] | – | – | – | – | – | – | – | – | 0.51 | – | – |
| CCCCC(=O)O [Valeric, valeric/pentanoic acid] | 0.11 ± 0.05 | >6.52 | – | 1.12 ± 0.16 | – | 0.31 ± 0.02 | – | – | – | – | – |
| CCCCCCCCCC(=O)O [Capric, capric/decanoic acid] | 0.67 ± 0.17 | >6.52 | 0.37 ± 0.06 | 0.57 ± 0.09 | 0.23 ± 0.04 | 0.28 ± 0.09 | – | – | – | – | – |
| CCC(=O)O [Propionic, propionic/propanoic acid] | >6.52 | >6.52 | 0.73 ± 0.22 | 1.41 ± 0.66 | 0.89 ± 0.24 | 1.11 ± 0.27 | – | – | – | 0.89 | 1.11 |
| CCCCCCCCC(=O)O [Pelargonic, pelargonic/nonanoic acid] | 0.31 ± 0.10 | >6.52 | – | 0.30 ± 0.09 | – | 0.39 ± 0.11 | – | – | – | – | – |
| CCCCCCCC(=O)O [Caprylic, caprylic/octanoic acid] | 0.94 ± 0.26 | >6.52 | 0.56 ± 0.18 | 0.74 ± 0.11 | – | 0.49 ± 0.26 | – | – | – | – | – |
